In patent US20080234340A1, “Synthesis and characterization of polymorph form II of 4-(2-(4,4-dimethyl-2-oxooxazolidin-3-YL)thiazol-4-YL)benzonitrile” (Wyeth, priority 2007, published 2008):

Tests used:
[1] = target: T1, progesterone receptor (PR) (Homo sapiens, UniProt P06401); experiment: T47D alkaline phosphatase activity assay to identify progestins or antiprogestins; type: cell-based; conditions: T47D cells
T1 construct: in live, intact (whole) cells using the human breast carcinoma T47D cell line; endogenous in cells; host or cells: T47D human breast carcinoma cells
T1 sequence (P06401 1-933): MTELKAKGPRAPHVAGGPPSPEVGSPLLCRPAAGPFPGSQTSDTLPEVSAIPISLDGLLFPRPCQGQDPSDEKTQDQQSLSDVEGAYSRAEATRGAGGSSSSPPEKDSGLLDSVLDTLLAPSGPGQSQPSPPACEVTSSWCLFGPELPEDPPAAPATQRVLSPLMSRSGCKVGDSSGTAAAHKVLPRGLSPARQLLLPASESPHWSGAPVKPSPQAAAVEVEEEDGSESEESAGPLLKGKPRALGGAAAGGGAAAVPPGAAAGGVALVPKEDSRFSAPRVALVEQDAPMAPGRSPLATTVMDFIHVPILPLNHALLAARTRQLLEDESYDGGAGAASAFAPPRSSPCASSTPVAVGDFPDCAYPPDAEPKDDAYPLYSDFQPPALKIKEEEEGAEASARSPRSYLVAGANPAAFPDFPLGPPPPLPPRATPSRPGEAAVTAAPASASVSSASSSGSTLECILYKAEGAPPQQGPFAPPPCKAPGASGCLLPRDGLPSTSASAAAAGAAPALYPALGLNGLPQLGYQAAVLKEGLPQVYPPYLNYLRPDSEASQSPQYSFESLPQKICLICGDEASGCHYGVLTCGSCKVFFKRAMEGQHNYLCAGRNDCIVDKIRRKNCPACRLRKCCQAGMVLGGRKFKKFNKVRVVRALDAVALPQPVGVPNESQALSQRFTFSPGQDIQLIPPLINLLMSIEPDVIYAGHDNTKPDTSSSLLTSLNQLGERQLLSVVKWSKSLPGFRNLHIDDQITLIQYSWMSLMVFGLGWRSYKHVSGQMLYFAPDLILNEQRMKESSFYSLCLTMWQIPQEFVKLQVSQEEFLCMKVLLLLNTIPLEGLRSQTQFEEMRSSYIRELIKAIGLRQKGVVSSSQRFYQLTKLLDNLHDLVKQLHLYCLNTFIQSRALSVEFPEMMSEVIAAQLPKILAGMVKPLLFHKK
Description: (§1) The compound 4-(2-(4,4-dimethyl-2-oxooxazolidin-3-yl)thiazol-4-yl)benzonitrile has shown activity for modulating PR activity in assays to identify progestins or antiprogestins by (a) determining effect on alkaline phosphatase activity in T47D cells or (b) evaluating the progesterone receptor (PR) binding activity in live, intact (whole) cells using the human breast carcinoma T47D cell line and ^3H-progesterone as the labeled ligand (data presented in Table below).

[2] = target: T1, progesterone receptor (PR); experiment: PR whole cell binding in T47D cells with 3H-progesterone as labeled ligand; conditions: live, intact T47D cells; 3H-progesterone labeled ligand
Description: as §1

[3] = Hygroscopicity (ability to absorb water/moisture from the air); type: physicochemical; conditions: normal, atmospheric conditions
Description: One of skill in the art would readily be able to measure the hygroscopicity of Form II using techniques known in the art including, without limitation, dynamic vapor sorption (DVS) at relative humidities ranging from 0 to 100%. This decreased hygroscopic property of Form II thereby permits longer shelf life and storage of the solid compound in comparison to Form I.

[4] = Solubility in solvent at room temperature, centrifuged after 24 hours, supernatant assayed; type: physicochemical
Experimental: In another embodiment, the solvent is 2% Tween® 80 reagent in water, wherein Tween® 80 is a polyoxyethylene (20) sorbitan monooleate. One of skill in the art would readily be able to measure the solubility of Form II using techniques known in the art. Typically, the solubility was measured by adding Form II to a solvent at room temperature, centrifuging the solution after 24 hours, and assaying the supernatant. This increased solubility is observed when Form II is immersed in water.
In this example, the solubility of polymorph Form II of 4-(2-(4,4-dimethyl-2-oxooxazolidin-3-yl)thiazol-4-yl)benzonitrile in water is measured.

| SMILES | IC50 [1] [nM] | Ki [2] [nM] | Hygroscopicity compared with Form I [3] | Solubility compared with Form I ([4]; solvents such as water and hydrophilic non-ionic surfactants (2% Tween 80 in water), room temperature, 24 hours) | Solubility in water relative to Form I ([4]; water) [times] |
| --- | --- | --- | --- | --- | --- |
| CC1(C)COC(=O)N1c1nc(-c2ccc(C#N)cc2)cs1 [4-(2-(4,4-dimethyl-2-oxooxazolidin-3-yl)thiazol-4-yl)benzonitrile] | 3.1 | 4.9 |  |  |  |
| CC1(C)COC(=O)N1c1nc(-c2ccc(C#N)cc2)cs1 [Form II, 4-(2-(4,4-dimethyl-2-oxooxazolidin-3-yl)thiazol-4-yl)benzonitrile] |  |  | less hygroscopic than Form I | more soluble | 4 |
